Results published in patent US10076511B2, “Bisamide derivative of dicarboxylic acid as an agent for stimulating tissue regeneration and recovery of diminished tissue function” (TREAMID GmbH, priority 2015, dated 2018).
Marks after values point to notes of the source that are not given here.

Key:
Assay type in all cases: in vivo, rat
male Wistar rats [1] = assay: Metabolic syndrome model in rats (cafeteria diet)
From the text: Metabolic syndrome was simulated in male Wistar rats (260-280 g) by keeping animals on a high-fat diet (“cafeteria diet”) for 12 weeks. The “cafeteria diet” was balanced according to Current Protocols in Pharmacology [Current Protocols in Pharmacology (2005) Animal Models of Disease//Contributed by Petter Hedlund, Kenshi Matsumoto, and Karl-Erik Andersson]. The diet contained 25-35% of fats and 25-30% of digestible carbohydrates in addition to the standard diet of rodents. Treamid was administered at a dose of 0.5 mg/kg intragastrically once daily, every day from Week 7 to Week 11 of the diet. Reference drug Metformin was administered at a dose of 200 mg/kg intragastrically according to the same regimen.
The development of pathology and a therapeutic effect of Treamid were estimated by the following parameters: blood biochemical parameters (glucose, cholesterol, triglycerides (TG), HDL, LDL, atherogenicity index), glucose tolerance test, visceral fat weight, total number and percentage of motile sperm forms.
Glucose was determined with an OneNouch Select glucometer (Switzerland).
The levels of triglycerides, TCh and HDL were determined by using a diagnostic kit (Olvex Diagnosticum, Russia).
The level of LDL was determined by the formula 2. LDL=TCh−(HDL+TG/2.2) (1),
The atherogenicity index (AI) was calculated by the formula 3. AI=(TCh−HDL)/HDL (2),
The atherogenicity index was calculated for each animal individually, and then the arithmetic mean value of the group was calculated.
For the analysis of sperm, the animals were anesthetized with intraperitoneal injection of a mixture of Zolletil and Xyla (0.2 ml of Zoletil+0.8 ml Xyla) in a volume of 70 μl/100 g of weight. Epididymis was isolated. The epididymis head was cut off from the tail, weighed, 5 incisions were made (to improve the sperm yield), and placed in a tube containing 10 ml of phosphate buffered saline heated to 37° C. The tube was held at 37° C. for 10 minutes. Then, the tube was shaken on a shaker, 20 μl of the liquid was taken, applied to a glass slide heated to 37° C., and the number of motile sperm cells was assessed under a microscope. The calculation was performed up to 100 sperm cells.
The total number of sperm cells in a test tube with epididymis was calculated as follows: 20 μl of the liquid was taken after shaking and added to a tube containing 400 μl of physiological saline. After shaking the tubes, their contents (20 μl) were taken out and introduced into Goryaev chamber. The number of sperm cells was counted in 100 large squares. The number of sperm cells in the head of epididymis was calculated by the formula: Number of sperm cells=number of sperm cells in 100 large squares of Goryaev chamber*0.525(factor from the calculation of the dilution and the volume of Goryaev chamber)/weight of the epididymis head.

male rats = conditions: rat, in vivo
Protocol: The latter was simulated by a single injection of cytostatic drug Paclitaxel (Mitotax, Dr. Reddy's, India) to male rats (3 months of age). The choice of the drug was due to the fact that it is one of the medications that damage the precursors of spermatogenesis—stem cells.
Paclitaxel was administered to the animals of the control and test groups once intravenously at the maximum tolerated dose of 7.6 mg/kg. Treamid was administered to the animals of the experimental groups intragastrically at a dose of 5 mg/kg in the form of a suspension in 2% starch mucus for 15 days a month after the administration of Paclitaxel. The control animals received an equivalent volume of the solvent (2% starch mucus), instead of the test compound.
The colony-stimulating activity of the cells of the microenvironment of spermatogenic tissue (production of humoral regulators of spermatogenesis by Sertoli cells) was determined as follows. The above-described procedure was used to prepare a testis homogenate from which an adherent fraction of cells was isolated. The adherent cells were cultured for 24 hours in complete culture medium at 37° C., 5% CO2 and 100% air humidity. A day later, the supernatant was collected, which was stored at a temperature of […]. The level of humoral factors of spermatogenesis in the supernatant was tested by the test system of CFU-Sp of the testes of intact rats. […]

Wistar rats = assay: Pair-test of sexual behavior, rats of late reproductive (14 months) and presenile (19 months) age; conditions: 14-month rats
Protocol: (§1) Erectile dysfunction was simulated by using animals of late and senile reproductive age (14-19 months). Suppression of sexual motivation was simulated by using animals of late reproductive age (14 months).
Experiments on studying the effect of Treamid on copulatory activity were carried out on 76 Wistar rats (14 months and 19 months of age). Treamid was administered intragastrically for 14 days at a dose of 5 mg/kg. Reference drug Sildenafil (100 mg, PFIZER PGM, France) was also administered intragastrically, which corresponded to clinical use, at a dose of 3 mg/kg twice a week. The sexual activity was estimated by the pair-test of sexual behavior. For this purpose female rats in the estrus stage caused by a preliminary 4-fold injection of the Synestrel were involved in the experiment. The effectiveness of Treamid was estimated by the following indices: latency until the first mating attempt (LFM), the number of mating attempts (MN), and the number of ejaculations (EN). The obtained data were compared with those of the same animals before the administration of Treamid (the first test) and with the data in the control group (the second test).

male Wistar rats [2] = assay: Sexual incentive motivation test, rats of late reproductive age; conditions: 14-month rats
Protocol: as §1
Experiments on studying the effect of Treamid on sexual motivation were carried out on 40 male Wistar rats (14 months of age). A model for a targeted search for novel agents for the therapy of this pathology was used as an experimental model of sexual incentive motivation in rats [Xi Chu, Ekaterina S. Zhavbert, Julia L. Dugina, Irina A. Kheyfets, Svetlana A. Sergeeva, Oleg I. Epstein, Anders Agmo Sindenafil and a compound stimulating endothelial NO synthase modity sexual incentive motivation and copulatory behavior in male wistar and fisher 344//J Sex Med.—2008.—5.—P. 2085-2009]. This model is based on the fact that rats are social animals and seek not only sexual, but also social contacts. The assessment of sexual motivation involves determining the time spent near a sexual stimulus and the score of preference in animals without direct contact with “social” and “sexual” stimuli. The sexual stimulus was a female rat in estrus stage, and the social stimulus was a male rat.

male Wistar rats [3] = assay: Pair-test of sexual behavior, seasonal suppression of copulatory activity
Protocol: Seasonal suppression of reproductive activity was simulated by carrying out the experiment in the winter period (end of December). As a background group, intact animals (3 months of age) were tested in June.
The experiments were carried out on 27 male Wistar rats of reproductive age (3 months). Treamid at a dose of 5 mg/kg and reference drug Sildenafil (at a dose of 3 mg/kg) were administered intragastrically […], once daily for 15 days. The sexual activity was estimated by the pair-test of sexual behavior. The test was carried out twice: before administration and one hour after the last administration of Treamid. The rats of the control groups receiving the solvent were tested at the same time as the animals of the experimental groups.
The experiment also comprised the use of female rats in the estrus stage caused by a preliminary 4-fold injection of the Synestrel. The effectiveness of Treamid was estimated by the following indices: latency until the first mating attempt (LFM), the number of mating attempts (MN), and the number of ejaculations (EN). The obtained data were compared with those of the same animals before the administration of the tested compound and with the data of the control group (the second test).

[4] = Treamid 0.5 mg/kg, Metformin 200 mg/kg intragastrically Week 7-11 of high-fat diet
[5] = high-fat diet for 12 weeks, Treamid 0.5 mg/kg, Metformin 200 mg/kg
[6] = high-fat diet, Treamid 0.5 mg/kg, Metformin 200 mg/kg
[7] = First test, before administration of drugs
[8] = Second test, after 14-day administration course, Treamid 5 mg/kg, Sildenafil 3 mg/kg
[9] = Second test, after administration of the test compound, Treamid 5 mg/kg, Sildenafil 3 mg/kg, 14 days
[10] = first test, before administration
[11] = first test, before administration, winter period
[12] = second test, one hour after last administration, Treamid 5.0 mg/kg, Sildenafil 3 mg/kg intragastrically, 15 days

CN(C)C(=N)N=C(N)N [Metformin, reference compound]
Glucose level in the blood of male rats, mmol/L (male Wistar rats [1]; 3 weeks after the drug administration, Treamid 0.5 mg/kg, Metformin 200 mg/kg): 6.9 ± 0.3*& mmol/L
Glucose level in the blood of male rats, mmol/L (male Wistar rats [1]; 5 weeks after the drug administration, Treamid 0.5 mg/kg, Metformin 200 mg/kg): 8.0 ± 0.2*& mmol/L
Relative weight of visceral fat, Fat near the intestine (male Wistar rats [1]; [4]): 1.07 ± 0.08 % based on body weight
Relative weight of visceral fat, Fat near the kidneys (male Wistar rats [1]; [4]): 0.52 ± 0.05& % based on body weight
Relative weight of visceral fat, Fat near the testes (male Wistar rats [1]; [4]): 0.98 ± 0.12 % based on body weight
Relative weight of visceral fat, Total fat (male Wistar rats [1]; [4]): 2.57 % based on body weight
Glucose level in the blood of male rats (male Wistar rats [1]; before administration of drugs (Week 6 of diet)): 6.2 ± 0.1 mmol/L
Atherogenicity index (male Wistar rats [1]; [5]): 0.6 ± 0.1&
HDL, mM/l (male Wistar rats [1]; [5]): 1.8 ± 0& mM/l
LDL, mM/l (male Wistar rats [1]; [5]): 0.7 ± 0.3& mM/l
Total cholesterol, mM/l (male Wistar rats [1]; [5]): 2.8 ± 0.3 mM/l
Triglycerides, mM/l (male Wistar rats [1]; [5]): 0.7 ± 0.1& mM/l
Percentage of motile sperm forms (male Wistar rats [1]; [6]): 24.43 ± 3.99 %
Total number of sperm cells (male Wistar rats [1]; [6]): 276.6 ± 44.6&
Glucose level in the blood of male rats, mmol/L (male Wistar rats [1]; one week after the drug withdrawal, Treamid 0.5 mg/kg, Metformin 200 mg/kg): 7.8 ± 0.6& mmol/L
increase of the percentage of motile sperm forms (male Wistar rats [1]; vs. high-fat diet control): did not affect
increase of the total number of sperm cells (male Wistar rats [1]; vs. high-fat diet control): 1.8 times

CC(=O)O[C@H]1C(=O)[C@@]2(C)[C@H]([C@H](OC(=O)c3ccccc3)[C@]3(O)C[C@H](OC(=O)[C@H](O)[C@@H](NC(=O)c4ccccc4)c4ccccc4)C(C)=C1C3(C)C)[C@]1(OC(C)=O)CO[C@@H]1C[C@@H]2O [Paclitaxel, reference compound]
colony stimulating activity of conditioned media of testis cells, CFU-Sp, per 2 × 10^5 (M; SD, n = 10) (male rats): 3.0; 0.53* per 2 × 10^5

CCCc1nn(C)c2c(=O)[nH]c(-c3cc(S(=O)(=O)N4CCN(C)CC4)ccc3OCC)nc12 [Sildenafil, reference compound]
EN (the number of ejaculations) (Wistar rats; [7]): 0.00 ± 0.00
LFM (latency until the first mount) (Wistar rats; [7]): 610.08 ± 88.34
MN (the number of mounts) (Wistar rats; [7]): 1.58 ± 0.56
EN (the number of ejaculations) (Wistar rats; [8]): 0.00 ± 0.00
MN (the number of mounts) (Wistar rats; [8]): 6.27 ± 1.27⋄#
LFM (latency until the first mount) (Wistar rats; Second test, after 14-day administration course, Treamid 5 mg/kg, Sildenafil 3 mg/kg intragastrically): 171.09 ± 78.08⋄*
A, sec (time spent in the sexual stimulus zone) (male Wistar rats [2]; [9]): 143.18 ± 48.64 s
PS, s. u. (preference score) (male Wistar rats [2]; [9]): 0.41 ± 0.12 s. u.
effect on sexual motivation (male Wistar rats [2]; Treamid 5 mg/kg, Sildenafil 3 mg/kg): had no effect
A, sec (time spent in the sexual stimulus zone) (male Wistar rats [2]; [10]): 166.83 ± 26.27 s
B, sec (time spent in the social stimulus zone) (male Wistar rats [2]; [10]): 113.58 ± 22.60 s
PS, s. u. (preference score) (male Wistar rats [2]; [10]): 0.59 ± 0.06 s. u.
effect on sexual behavior under seasonal suppression (male Wistar rats [3]; Sildenafil 3 mg/kg): did not have a significant effect
LFM (male Wistar rats [3]; [11]): 473.00 ± 137.58 s
the number of ejaculations, % (male Wistar rats [3]; [11]): 0%
the number of mounts, abs. (male Wistar rats [3]; [11]): 3.33 ± 1.27 abs.
LFM (male Wistar rats [3]; [12]): 308.22 ± 117.73 s
the number of ejaculations, % (male Wistar rats [3]; [12]): 0%
the number of mounts, abs. (male Wistar rats [3]; [12]): 5.67 ± 1.76 abs.
